In paper PMC6104465, “Synthesis and in vitro and in vivo evaluation of urea-based PSMA inhibitors with increased lipophilicity” (EJNMMI Research, 2018):
Where two headings read alike, the source gives them in different places.

Key:
[1] = biological target: T1, human serum albumin (Homo sapiens, UniProt P02768); test: human serum albumin binding, HPLC on Chiralpak HSA column; format: in vitro ADME; details: for Log K HSA: calibration reference substances, logarithmic K from the literature HSA binding, ref [3, 4]; for bound to HSA: HPLC, Chiralpak HSA column
T1 construct: purchased Daicel Chemical Industries, purchased from Chiral Technologies Europe (Illkirch, France) Chiralpak HSA (5 μm, 50 × 3 mm)
T1 sequence (P02768 25-609): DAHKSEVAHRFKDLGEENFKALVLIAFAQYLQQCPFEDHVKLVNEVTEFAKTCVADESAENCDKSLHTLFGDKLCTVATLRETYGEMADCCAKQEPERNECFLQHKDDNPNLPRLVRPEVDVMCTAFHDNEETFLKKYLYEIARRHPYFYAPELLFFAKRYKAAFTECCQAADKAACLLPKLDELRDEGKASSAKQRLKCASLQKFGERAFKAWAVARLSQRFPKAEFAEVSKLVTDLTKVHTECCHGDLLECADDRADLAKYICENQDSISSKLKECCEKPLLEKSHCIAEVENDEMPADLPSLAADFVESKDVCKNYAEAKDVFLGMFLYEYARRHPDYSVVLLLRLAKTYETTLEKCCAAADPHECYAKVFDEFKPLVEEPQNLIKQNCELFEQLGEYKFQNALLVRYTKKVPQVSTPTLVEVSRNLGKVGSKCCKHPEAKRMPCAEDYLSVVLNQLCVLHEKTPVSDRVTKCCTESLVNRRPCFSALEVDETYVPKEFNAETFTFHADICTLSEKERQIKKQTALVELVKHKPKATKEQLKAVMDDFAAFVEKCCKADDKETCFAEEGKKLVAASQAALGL
Description: High in vivo plasma protein binding increases the plasma half-life of the radiopharmaceutical and therefore might offer beneficiary effects on the tracer distribution (higher uptake into target tissue) but can also lead to increased background activity especially at early time points. In general, drugs binding to plasma proteins with high affinity feature moderate to high lipophilicity, in many cases due to halogenated aromatic groups. […] Human albumin binding was determined, applying a modified HPLC method.
Mobile phase A was an ammonium acetate buffer (50 mM, pH 6.9), mobile phase B was 2-propanol, the flow rate was 0.5 mL/min, and equilibration with 0% B for 3 min was followed by a gradient of 0% B to 20% B to the end of each run within 45 min. To check the column performance and to conduct the non-linear regression, the HSA column was calibrated each day with nine reference substances. Afterward, the PSMA inhibitors with unknown HSA binding were measured. The retention times and factors together with correlation curve are found in Additional file 1.
HSA binding experiments were performed as previously described. […] For each run, 10 µL of the solution containing the inhibitor was injected into the RP-HPLC system and the retention time measured. […] Non-linear regression was established with OriginPro 2016G.

[2] = biological target: T1, human serum albumin; parameters: method as in Valko et. al. or Yamazaki et al. [3, 4]; details: calibration reference substances; ref Valko et. al. or Yamazaki et al. [3, 4]; cited from earlier work
[3] = biological target: T2, PSMA (Homo sapiens, UniProt Q04609); details: LNCaP cells 150,000 cells/well, 4 °C, 1 h, c(125I-IBA) = 0.2 nM; mean ± SD; ref [17]; read-out: IC50 (affinity to PSMA); cited from earlier work
T2 construct: endogenous in cells; host or cells: LNCaP cells (CLS: 300265)
T2 sequence (Q04609 whole entry): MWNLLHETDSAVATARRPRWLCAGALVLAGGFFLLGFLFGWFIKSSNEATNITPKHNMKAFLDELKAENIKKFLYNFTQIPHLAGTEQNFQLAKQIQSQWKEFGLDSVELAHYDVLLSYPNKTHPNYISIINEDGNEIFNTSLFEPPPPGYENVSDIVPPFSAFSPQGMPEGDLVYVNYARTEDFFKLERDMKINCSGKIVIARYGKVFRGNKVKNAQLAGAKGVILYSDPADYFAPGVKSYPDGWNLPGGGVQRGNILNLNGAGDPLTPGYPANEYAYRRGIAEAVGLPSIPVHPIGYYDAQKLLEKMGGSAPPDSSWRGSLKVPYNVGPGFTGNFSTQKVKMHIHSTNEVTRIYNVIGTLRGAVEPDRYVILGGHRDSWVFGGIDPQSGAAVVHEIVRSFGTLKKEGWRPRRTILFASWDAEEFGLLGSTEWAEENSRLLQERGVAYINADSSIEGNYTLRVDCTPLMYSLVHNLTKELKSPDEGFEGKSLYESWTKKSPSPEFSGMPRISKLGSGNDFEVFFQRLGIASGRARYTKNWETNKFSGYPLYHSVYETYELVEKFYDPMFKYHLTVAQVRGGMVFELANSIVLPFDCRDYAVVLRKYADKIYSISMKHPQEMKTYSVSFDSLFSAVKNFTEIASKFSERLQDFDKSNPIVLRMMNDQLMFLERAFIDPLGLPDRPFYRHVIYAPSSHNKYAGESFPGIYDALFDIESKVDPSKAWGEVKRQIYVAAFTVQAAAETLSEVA

[4] = biological target: T2, PSMA; test: competitive binding assay on LNCaP cells (radioligand 125I-IBA); details: read-out: IC50 (affinity to PSMA)
Description: The effect of the lipophilic (aromatic) modifications in the spacer unit of the acetylated PSMA inhibitors 1–9 on the IC50 to PSMA was determined in a competitive binding assay on PSMA-expressing LNCaP cells.
The PSMA affinity was determined as described previously. In brief, 150,000 LNCaP cells were seeded into 24-well plates one day prior to the experiment. […] After removal of the supernatant, the cells were washed once with HBSS and subsequently lysed with 1 n NaOH. Both fractions were quantified in a γ-counter. Using the Graphpad Prism software, binding curves were plotted and IC50 values were extracted. Three independent determinations were performed in triplicate for each compound.

[5] = LNCaP cells 150,000 cells/well, 4 °C, 1 h, c(125I-IBA) = 0.2 nM, mean ± SD (n = 3)

## Nc1ccccc1 [Aniline]
[1]
  Log K HSA: -0.79
[2]
  Lit. HSA% (literature value of human serum albumin binding): 14.06%

## O=C(O)c1ccccc1 [Benzoic Acid]
[2]
  Lit. HSA% (literature value of human serum albumin binding): 34.27%

## COc1ccc(Cl)cc1C(=O)NCCc1ccc(S(=O)(=O)NC(=O)NC2CCCCC2)cc1 [Glibenclamide]
[1]
  Log K HSA: 1.69
[2]
  Lit. HSA% (literature value of human serum albumin binding): 99.00%

## O=C(O)CC[C@H](NC(=O)N[C@@H](CCCCNC(=O)CCCCCCC(=O)NCCCC[C@@H](NC(=O)[C@@H](Cc1ccccc1)NC(=O)[C@@H](Cc1ccc(O)c(I)c1)NC(=O)CCC(C(=O)O)N1CCN(CC(=O)O)CCN(CC(=O)O)CCN(CC(=O)O)CC1)C(=O)O)C(=O)O)C(=O)O (some centres unmarked) [PSMA I&T, DOTAGA-(I-y)fk(Sub-KuE)]
[3]
  IC50: 10.2 ± 3.5 nM

## CC(=O)N[C@@H](Cc1ccc(O)cc1)C(=O)N[C@@H](Cc1ccccc1)C(=O)N[C@@H](CCCCNC(=O)CCCCCCC(=O)NCCCC[C@H](NC(=O)N[C@@H](CCC(=O)O)C(=O)O)C(=O)O)C(=O)O [PSMA inhibitor 1, Ac-YFK(Sub-KuE)]
[4]
  IC50: 15 ± 1.3 nM

## CC(=O)N[C@@H](Cc1ccc(O)cc1)C(=O)N[C@@H](Cc1c[nH]c2ccccc12)C(=O)N[C@@H](CCCCNC(=O)CCCCCCC(=O)NCCCC[C@H](NC(=O)N[C@@H](CCC(=O)O)C(=O)O)C(=O)O)C(=O)O [PSMA inhibitor 2, Ac-YWK(Sub-KuE)]
[4]
  IC50: 6.8 ± 3.3 nM

## CC(=O)N[C@@H](Cc1ccc(O)cc1)C(=O)N[C@@H](Cc1ccc(-c2ccccc2)cc1)C(=O)N[C@@H](CCCCNC(=O)CCCCCCC(=O)NCCCC[C@H](NC(=O)N[C@@H](CCC(=O)O)C(=O)O)C(=O)O)C(=O)O [PSMA inhibitor 4, Ac-Y-(Biphenyl-A)K(Sub-KuE)]
[4]
  IC50: 139 ± 117 nM

## CC(=O)N[C@@H](Cc1ccc(O)cc1)C(=O)N[C@@H](Cc1cccc2ccccc12)C(=O)N[C@@H](CCCCNC(=O)CCCCCCC(=O)NCCCC[C@H](NC(=O)N[C@@H](CCC(=O)O)C(=O)O)C(=O)O)C(=O)O [PSMA inhibitor 5, Ac-Y-1-Nal-K(Sub-KuE)]
[4]
  IC50: 4.3 ± 0.9 nM

## CC(=O)N[C@@H](Cc1ccc(O)cc1)C(=O)N[C@@H](Cc1ccc2ccccc2c1)C(=O)N[C@@H](CCCCNC(=O)CCCCCCC(=O)NCCCC[C@H](NC(=O)N[C@@H](CCC(=O)O)C(=O)O)C(=O)O)C(=O)O [PSMA inhibitor 6, Ac-Y-2-Nal-K(Sub-KuE)]
[4]
  IC50: 3.9 ± 1.7 nM

## CC(=O)N[C@@H](Cc1ccc(O)cc1)C(=O)N[C@@H](Cc1ccc([N+](=O)[O-])cc1)C(=O)N[C@@H](CCCCNC(=O)CCCCCCC(=O)NCCCC[C@H](NC(=O)N[C@@H](CCC(=O)O)C(=O)O)C(=O)O)C(=O)O [PSMA inhibitor 7, Ac-Y(4-NO2-F)K(Sub-KuE)]
[4]
  IC50: 7.4 ± 0.5 nM

## CC(=O)N[C@@H](Cc1ccc(O)cc1)C(=O)N[C@@H](Cc1cc(I)c(O)c(I)c1)C(=O)N[C@@H](CCCCNC(=O)CCCCCCC(=O)NCCCC[C@H](NC(=O)N[C@@H](CCC(=O)O)C(=O)O)C(=O)O)C(=O)O [PSMA inhibitor 8, Ac-Y(3,5-di-I-Y)K(Sub-KuE)]
[4]
  IC50: 3.8 ± 0.6 nM

## CC(=O)N[C@@H](Cc1ccc(O)cc1)C(=O)N[C@@H](Cc1ccc(O)c(C)c1)C(=O)N[C@@H](CCCCNC(=O)CCCCCCC(=O)NCCCC[C@H](NC(=O)N[C@@H](CCC(=O)O)C(=O)O)C(=O)O)C(=O)O [PSMA inhibitor 9, Ac-Y(3-CH3-Y)K(Sub-KuE)]
[4]
  IC50: 7.2 ± 0.9 nM

## O=C(O)CC[C@H](NC(=O)N[C@@H](CCCCNC(=O)CCCCCCC(=O)NCCCC[C@@H](NC(=O)[C@@H](Cc1ccc2ccccc2c1)NC(=O)[C@@H](Cc1ccc(O)cc1)NC(=O)CCC(C(=O)O)N1CCN(CC(=O)O)CCN(CC(=O)O)CCN(CC(=O)O)CC1)C(=O)O)C(=O)O)C(=O)O (some centres unmarked) [PSMA inhibitor 10, DOTAGA-y-2-nal-k(Sub-KuE)]
[4]; [5]
  IC50: 8.5 ± 2.5 nM

## O=C(O)CC[C@H](NC(=O)N[C@@H](CCCCNC(=O)[C@@H](Cc1ccc(I)cc1)NC(=O)CCCC(=O)NCCCC[C@@H](NC(=O)[C@@H](Cc1ccc2ccccc2c1)NC(=O)[C@@H](Cc1ccc(O)cc1)NC(=O)CCC(C(=O)O)N1CCN(CC(=O)O)CCN(CC(=O)O)CCN(CC(=O)O)CC1)C(=O)O)C(=O)O)C(=O)O (some centres unmarked) [PSMA inhibitor 11, DOTAGA-y-2-nal-k((I-f)-Glut-KuE)]
[4]; [5]
  IC50: 4.6 ± 0.9 nM

## Oc1ccccc1 [Phenol]
[1]
  Log K HSA: -0.59
[2]
  Lit. HSA% (literature value of human serum albumin binding): 20.69%

## CCCN(CCC)S(=O)(=O)c1ccc(C(=O)O)cc1 [Probenecid]
[1]
  Log K HSA: 1.20
[2]
  Lit. HSA% (literature value of human serum albumin binding): 95.00%

## ^natGa-DOTAGA-(I-y)fk(Sub-KuE) [^natGa-PSMA I&T]
[3]
  IC50: 9.3 ± 3.3 nM

## ^natGa-DOTAGA-y-2-nal-k((I-f)-Glut-KuE) [^natGa-11]
[4]; [5]
  IC50: 9.3 ± 2.9 nM

## ^natGa-DOTAGA-y-2-nal-k(Sub-KuE) [^natGa-10]
[4]; [5]
  IC50: 9.8 ± 3.2 nM

## ^natLu-DOTAGA-(I-y)fk(Sub-KuE) [^natLu-PSMA I&T]
[1]
  bound to HSA: 79%
[3]
  IC50: 7.9 ± 2.4 nM

## ^natLu-DOTAGA-y-2-nal-k((I-f)-Glut-KuE) [^natLu-11]
[1]
  bound to HSA: 97%
[4]; [5]
  IC50: 6.1 ± 1.6 nM

## ^natLu-DOTAGA-y-2-nal-k(Sub-KuE) [^natLu-10]
[1]
  bound to HSA: 83%
[4]; [5]
  IC50: 2.1 ± 0.8 nM
